{"source": "patent US20080207502A1", "about": "“Anti-Angiogenic Peptides and Methods of Use Thereof” (SOPHERION THERAPEUTICS, INC., priority 2004, published 2008)", "key": {"[1]": {"test_system": "RPMI-8226 human myeloma xenografts", "test": "RPMI-8226 human myeloma subcutaneous xenograft model in scid mice", "type": "in vivo", "settings": "vs untreated controls, FIG. 16", "method": "Anti-tumor efficacy of test peptides was evaluated against RPMI-8226 human myeloma xenografts implanted subcutaneously (sc) in severe compromised immunodeficient (scid) mice.\nStudies generally consisted of randomly-assigned groups of 8 or 10 mice per group, which were implanted sc with myeloma fragments (30-40 mg). In addition to groups tested with test peptides, studies usually included a vehicle-treated control group and a positive control group treated with an agent known to be active in the RPMI-8226 model. In one type of schedule, mice were treated IP with either vehicle or test peptides starting one day after tumor implantation (implantation day defined as Day 0). Test peptides and vehicle were generally administered IP daily for 3-4 weeks.\nDosing solutions of the test peptides were prepared weekly and kept at −20° C. between injections. […] Each tumor was measured by caliper in two dimensions and converted to tumor mass using the formula for a prolate ellipsoid (a X b^2/2), where a is the longer dimension and b is the smaller dimension, and assuming unit density (1 mm^3=1 mg). Tumor measurements were recorded twice weekly. Body weights were also recorded twice weekly. Anti-tumor activity was assessed by the delay in tumor growth of the treated groups in comparison to the vehicle-treated control group, partial and complete regressions, and tumor-free survivors. […]"}, "[2]": {"test_system": "Bovine Retinal Endothelial Cells (BRE)", "test": "VEGF-mediated survival/proliferation of BRE cells (WST1)", "type": "cell-based", "settings": "increasing doses, FIG. 5", "method": "(§1) The anti-angiogenic activities of the peptides were tested by measuring the level of inhibition of VEGF and bFGF mediated survival/proliferation of Bovine Retinal Endothelial Cells (BRE), Human Dermal Microvasculature Endothelial Cells, and Human Umbilical Vein Endothelial Cells, all of which are standard cell lines used to test anti-angiogenic compounds.\nBovine retinal endothelial (BRE) cells were maintained in Cambrex EG2 media. For non-adherent cell assays, on day one cells were starved for either 6 hours or overnight, then trypsinized and plated in 96-well plates in 100 μl of Optimem plus 1% fetal bovine serum (FBS). One hundred μl of Optimem plus 1% FBS was added to the wells containing, where appropriate, VEGF to a final concentration of 25 ng/ml, and the various peptides to final concentrations as described. For adherent cells, cells were plated in 96-well plates in complete media, allowed to adhere overnight, washed in starvation media (Optimem plus 1% FBS) and then starved during the day. At the end of the day, 100 μl of Optimem plus 1% FBS was added to the wells containing, where appropriate, VEGF to a final concentration of 25 ng/ml and the various peptides to final concentrations as described.\n(§2) In all cases, after 72 hours incubation, the amount of live cells in each well was measured with the WST1 assay (Roche)."}, "[3]": {"test": "Biological activity of D-amino acid versions of ST100,038 (assay not specified)", "settings": "ST100,045 tested against ST100,059 and a control", "method": "D-amino acid peptides can be made by generating a D-amino acid peptide with the same sequence as a L-amino acid peptide or by preparing a retro inverso form of a peptide. ST100,045 (SEQ ID NO.: 31) has the same sequence as ST100,038 (SEQ ID NO.: 29) was tested against ST100,059 (SEQ ID NO.: 30) which is the retro inverso version of ST100,038 and a control."}, "B16 melanoma tumor": {"test_system": "B16 melanoma tumor", "test": "Subcutaneous B16 melanoma tumor model in vivo", "design": "species or system mouse", "settings": "20 mg/kg daily IP, vs untreated controls, FIG. 12", "method": "Because of the importance of the angiogenic process for tumorigenesis, miniproteins as described herein, were hypothesized to show good anti-tumor activity. The peptides of the invention were tested in an in vivo model of anti-tumor activity. This model compares the growth of sub cutaneous B16 melanoma tumor in vivo either untreated or treated with various amount of miniproteins described in this application. This model is widely accepted in the art as a model to test the anti-tumor activity of compounds that inhibit tumor growth because they have anti-angiogenic activity.\nMale C57BL/6 mice were obtained with a mean body weight of 20±2 g. Mouse B16-F1 melanoma cells were implanted subcutaneously (5×10^5 cell per animal). Peptides (formulated in water) were administered ip daily at the amount indicated starting the day after cells injection. In general, tumors became palpable around 9 days after injection of cells. Tumor were then measured every 2 days."}, "[4]": {"test": "Heparin binding activity by liquid chromatography on Hi Trap Heparin HP column (NaCl elution)", "settings": "step gradient 500-1000 mM NaCl in 10 mM NaH2PO4 pH 7", "description": "Liquid chromatography was used to determine the relative levels of heparin binding activity of the individual heparin binding domains and of the anti-angiogenic miniproteins that contains them. In this assay, the strength of the heparin binding activity is proportional to the amount of NaCl that is required to elute the peptide bound to the heparin column. Peptides with low binding activity are eluted with lower NaCl concentration, whereas higher concentrations of NaCl are required for peptides with higher binding activity.\nHi Trap Heparin HP column (1 ml, Amersham Biosciences) was equilibrated with 10 column volumes (CV) of equilibration (EQ) buffer=10 mM NaH2PO4pH 7. All buffers were loaded onto columns via syringes. 500 μl fractions are collected (flow rate=1 ml/minute). 500 μg of peptide (1 mg/ml, resuspended in EQ buffer) was added to each column and the flow through was collected for analysis. The columns were then washed with 3 CV of EQ buffer. Peptides are then eluted with a step gradient of 500, 625, 750, 875 mM NaCl in EQ buffer, 2 CV per each step. A final step of 3 CV of 1000 mM NaCl in EQ buffer was collected in 500 μl fractions. The A210 nm was measured using EQ and elution buffers as blanks."}, "[5]": {"test_system": "human dermal microvasculature endothelial cells", "test": "VEGF mediated survival/proliferation in human dermal microvasculature endothelial cells", "type": "cell-based", "settings": "30, 100, and 200 μg/ml, FIG. 8", "method": "as §1, §2\n(§3) In a further experiment, the anti-angiogenic activity of peptide ST100,061 (SEQ ID NO.: 3), a derivative of ST100,032 (SEQ ID NO.: 1), at concentrations of 30, 100, and 200 μg/ml was tested by measuring the level of inhibition of VEGF and bFGF mediated survival/proliferation in human dermal microvasculature endothelial cells."}, "[6]": {"test_system": "human dermal microvasculature endothelial cells", "test": "bFGF mediated survival/proliferation in human dermal microvasculature endothelial cells", "type": "cell-based", "settings": "30, 100, and 200 μg/ml, FIG. 8", "method": "as §1, §2, §3"}, "L1210 murine leukemia": {"test_system": "L1210 murine leukemia", "test": "L1210 murine leukemia intravenous model in vivo", "design": "species or system mouse", "settings": "dosed IP, DBA/2 mice, FIG. 15a", "method": "Antitumor activity of test peptides, administered intraperitoneally (IP), were evaluated against L1210 murine leukemia cells implanted intravenously (IV) in DBA/2 mice.\nStudies generally consisted of randomly-assigned groups of 8 mice per group, which were inoculated IV with 1×10^5 cells per mouse from an in vivo leukemia cell line. In addition to groups tested with test peptides, studies usually included a vehicle-treated control group and a positive control group treated with an agent known to be active in the L1210 leukemia model. Starting one day after tumor inoculation (inoculation day defined as Day 0), mice were treated IP with either vehicle or test peptides in various schedules. Generally this consisted of treatment every other day for approximately 1 week (e.g., Days 1, 3, 5 and 7). A positive agent (e.g., cyclophosphamide) was usually given as a single IP injection on Day 1. All dosing solutions were prepared on each day of treatment. Survival was monitored daily and body weights were measured twice weekly. Anti-tumor activity was assessed by the increase in lifespan of the treated groups in comparison to the vehicle-treated control group. Studies with the L1210 leukemia model were limited to 30 days."}, "[7]": {"test_system": "Human Umbilical Vein Endothelial Cells", "test": "bFGF-mediated survival/proliferation of human umbilical vein endothelial cells (WST1)", "type": "cell-based", "method": "as §1\nHuman umbilical cord endothelial (HUVEC) cells were maintained in Cambrex EGM-2MV media. On day one, cells were starved overnight in 1% FBS in M200 media (Cascade Biologicals). The morning after, the media were replaced with serum-free media (control) or media containing 25 ng/ml of human VEGF165 and the various peptides to final concentrations as described.\nas §2"}, "[8]": {"test_system": "mouse leukemia L1210 cells", "test": "Tumor cell proliferation (WST-1), L1210", "type": "cell-based", "settings": "FIG. 11", "method": "Peptides to be tested were prepared at a stock concentration of 10 mM in sterile phosphate buffered saline. Cancer cell lines obtained from the American Type Culture Collection (MG-63, HT1080, A498, BxPC3, 786-0, PC-3, B16F1, B16F10, P388D1, Jurkat, MOLT4, THP-1, U-937, L1210, RPMI 8226, NCI H929, U266B1, K562) were cultured under appropriate conditions as described in the literature. Cell culture media and reagents were obtained from ATCC (Manassas, Va.), Invitrogen (Carlsbad, Calif.) or Mediatech (Herndon, Va.). Exponentially growing cultures were used for cell proliferation assays. Adherent cells were plated at a concentration of 100000 cells per milliter in growth media overnight (18-24 h) and treated the next day in a low serum media (growth media with 1% FBS for MG-63, HT1080, A498, BxPC3, PC-3, B16F1, B16F10. 786-0 cells were treated in media with 5% FBS). Suspension cell lines (P388D1, Jurkat, MOLT4, THP-1, U-937, L1210, RPMI 8226, NCI H929, U266B1, and K562) were diluted to a concentration of 100,000 cells per ml and treated on the same day with peptides. Peptides were diluted in treatment media and cells were treated for 48 or 72 hours depending on the cell line. Each dose was tested in triplicate for each experiment, and experiments were repeated for a minimum of three discrete times. After incubation, the relative number of cells was determined using WST-1 (Roche Applied Science). A 9.5 μl aliquot of WST-1 was added to each well. The plate was immediately read at 440 nm using a Bio-Tek PowerWave XS microplate reader, incubated for 2-3 hours at 37° C. and then read again. Cell proliferation was determined as the percent of the control cell proliferation. The absorbance of each well at time 0 was subtracted from the value of the final reading. Afterwards the blank values were averaged and subtracted from each test and control value. Finally, each test absorbance was divided by the average of the control absorbances and multiplied by 100 to obtain the percent of control. […]"}}, "data": [{"sequence": "PSQSSHPPLSTA (listed as Homo sapiens) [ST100,059]", "values": [{"measurement": "inhibition of tumor growth", "setting": "[1]; 100 mg/kg daily IP", "result": "does not inhibit tumor growth"}, {"measurement": "inhibition of VEGF stimulation", "setting": "[2]", "result": "inhibited with increasing doses"}, {"measurement": "biologically active", "setting": "[3]", "result": "biologically active"}, {"measurement": "inhibition of tumor growth", "setting": "B16 melanoma tumor", "result": "clearly inhibit tumor growth"}, {"measurement": "[NaCl] for elution", "setting": "[4]", "result": 0, "unit": "mM"}]}, {"sequence": "PYDGRGDSVVYGLRKKKAARGRRAARGRR (listed as Homo sapiens) [ST100,061, a derivative of ST100,032]", "values": [{"measurement": "inhibition of VEGF mediated survival/proliferation", "setting": "[5]", "result": "effective in inhibiting both VEGF and bFGF"}, {"measurement": "inhibition of tumor growth", "setting": "B16 melanoma tumor", "result": "may be less active"}, {"measurement": "inhibition of bFGF mediated survival/proliferation", "setting": "[6]", "result": "effective in inhibiting both VEGF and bFGF"}]}, {"sequence": "RRGRAARRGRAAKKKRLGYVVSDGRGDYP [ST100,064]", "values": [{"measurement": "mice (cured mice) survived longer than 30 days", "setting": "L1210 murine leukemia", "result": "Sixty to eighty percent"}, {"measurement": "survival", "setting": "L1210 murine leukemia", "result": "statistically significant increases in survival"}, {"measurement": "inhibition of bFGF mediated survival", "setting": "[7]; compared with ST100,061, FIG. 9", "result": "as effectively as ST100,061"}, {"measurement": "inhibition of bFGF mediated survival", "setting": "[7]; comparison of several peptides, FIG. 10", "result": "the most active in inhibiting bFGF stimulation"}, {"measurement": "inhibition of tumor growth", "setting": "[1]; 25 mg/kg daily IP", "result": "able to inhibit tumor growth"}, {"measurement": "blocked cell proliferation or induced cell death", "setting": "[8]", "result": "able to block cell proliferation and induce cell death"}]}]}
